Data reported in US20100168099A1, “1H-QUINOLIN-4-ONE COMPOUNDS, WITH AFFINITY FOR THE GABA RECEPTOR, PROCESSES, USES AND COMPOSITIONS” (FERRER INTERNACIONAL, S.A., priority 2006, published 2010).

Tests used:
[1] = tested on: spontaneous motor activity of male CD1 mice; assay: In vivo predictive sedation-hypnosis test (traveled distance); conditions: Mus musculus, ip, 0.5 h, 98 μmol/kg, single intraperitoneal dose, 30 minutes after dosing (first 5 min discarded), versus control
Description: b) In Vivo Determination of Predictive Sedative-Hypnotic Action
The in vivo effects of these compounds were assessed by a predictive sedation-hypnosis test in mice (D. J. Sanger et al., Eur. J. Pharmacol., 313, 35-42, 1996; and G. Griebel et al., Psychopharmacology, 146, 205-213, 1999).
Groups of 5-8 male CD1 mice, weighing 22-26 g at the time of test, were used. The test compounds were administered in single equimolecular intraperitoneal doses, suspended in 0.25% agar with one drop of Tween in a volume of 10 mL/kg. Control animals received the vehicle alone. Using a Smart System (Panlab, S. L., Spain) the traveled distance in cm was recorded for each mouse at 5 min intervals during a period of 30 minutes after dosing. The inhibition percentage traveled distance of treated animals versus control animals (the first 5 min were discarded) was calculated.

α1-GABAA receptor = assay: Ligand-binding assay, radiolabeled flumazenil competition, cerebellum membranes; parameters: species or system rat; conditions: for Affinity for the α1-subunit of the GABAA receptor, % inhibition: rat cerebellum membranes, radiolabeled flumazenil 1 nM; for affinity for α1-subunit of GABAA receptor (in words): compared with zolpidem where stated
Description: (§1) a) Ligand-binding Assays. Determination of the Affinity of Test Compounds for α1- and α2-GABAA, Receptor
(§2) Male Sprague-Dawley rats weighing 200-250 g at the time of experiment were used. After decapitation of the animal, the cerebellum (tissue that mostly contains α1-GABAA receptor) and spinal cord (tissue that mostly contains α2-GABAA receptor) were removed. The membranes were prepared according to the method by J. Lameh et al. (Prog. Neuro-Psychopharmacol. Biol. Psychiatry, 24, 979-991, 2000) and H. Noguchi et al. (Eur J Pharm, 434, 21-28, 2002) with slight modifications. Once the tissues weighed, they were suspended in 50 mM Tris.HCl (pH 7.4), 1:40 (v/v), or sucrose 0.32 M in the case of spinal cord, homogenized and then centrifuged at 20,000 g for 10 min at 7° C. The resulting pellet was resuspended under the same conditions and centrifuged again. The pellet was finally resuspended on a minimum volume and kept at −80° C. overnight. On the next day, the process was repeated until the final pellet was resuspended at a ratio of 1:10 (v/v) in the case of cerebellum and at a ratio of 1:5 (v/v) in the case of spinal cord.
(§3) Affinity was determined by competitive tests using radiolabeled flumazenil as ligand. The tests were performed according to the methods described by S. Arbilla et al. (Eur. J. Pharmacol., 130, 257-263, 1986); and Y. Wu et al. (Eur. J. Pharmacol., 278, 125-132, 1995) using 96-well microtiter plates. The membranes containing the study receptors, flumazenil (radiolabeling at a final concentration of 1 nM) and ascending concentrations of test compounds (in a total volume of 230 μL in 50 mM [pH 7.4] Tris.HCl buffer) were incubated. Simultaneously, the membranes were only incubated with the radiolabeled flumazenil (total binding, 100%) and in the presence of an elevated concentration of unradiolabeled flumazenil (non-specific binding, % estimation of radiolabeled ligand). The reactions started on adding the radiolabeled ligand followed by incubation for 60 minutes at 4° C. At the end of the incubation period, 200 μL of reaction were transferred to a multiscreen plate (Millipore) and filtered using a vacuum manifold and then washed three times with cold test buffer. The multiscreen plates were equipped with a GF/B filter that retained the membranes containing the receptors and the radiolabeled ligand which had been bound to the receptors. After washing, the plates were left till dry. Once dried, scintillation liquid was added and left under stirring overnight. The next day the plates were counted using a Perkin-Elmer Microbeta scintillation counter.
(§4) For analysis of the results the percentage of specific binding for every concentration of test compound was calculated as follows:
(§5) % specific binding=(X−N/T−N)×100
(§6) where, X: amount of bound ligand for every concentration of compound. T: total binding, maximum amount bound to the radiolabeled ligand. N: non-specific binding, amount of radiolabeled ligand bound in a non-specific way irrespective of the receptor used.
(§7) Every concentrations of compound were tested in triplicate and their mean values were used to determine the experimental values of % specific binding versus the concentration of compound. Affinity data are expressed as % inhibition at 10^−5M and 10^−7M concentrations.

α2-GABAA receptor = assay: Ligand-binding assay, radiolabeled flumazenil competition, spinal cord membranes; parameters: species or system rat; conditions: for Affinity for the α2-subunit of the GABAA receptor, % inhibition: rat spinal cord membranes, radiolabeled flumazenil 1 nM; for affinity for the α2-subunit of GABAA receptor (in words): compared with zolpidem where stated
Description: as §1, §2, §3, §4, §5, §6, §7

| SMILES | inhibition in vivo at 98 µmol/kg [1] | Affinity for the α1-subunit of the GABAA receptor, % inhibition (α1-GABAA receptor; 10^−5M) | Affinity for the α1-subunit of the GABAA receptor, % inhibition (α1-GABAA receptor; 10^−7M) | Affinity for the α2-subunit of the GABAA receptor, % inhibition (α2-GABAA receptor; 10^−5M) | Affinity for the α2-subunit of the GABAA receptor, % inhibition (α2-GABAA receptor; 10^−7M) | affinity for the α2-subunit of GABAA receptor (in words) (α2-GABAA receptor) | affinity for α1-subunit of GABAA receptor (in words) (α1-GABAA receptor) | α1-/α2-selectivity (in words) (α1-GABAA receptor; compared with zolpidem) |
| --- | --- | --- | --- | --- | --- | --- | --- | --- |
| C=CCN(CC=C)C(=O)Cn1cc(-c2ccccc2)c(=O)c2ccc(C)cc21 [Example 43, N,N-Diallyl-2-(7-methyl-4-oxo-3-phenyl-4H-quinolin-1-yl)-acetamide] | 91% | 99.0% | 49.9% | 88.2% | 12.5% | higher affinity than prior art compound zolpidem | – | – |
| Cc1ccc2c(=O)c(-c3ccccc3)cn(CC(=O)c3cccs3)c2c1 [Example 27, 7-Methyl-1-(2-oxo-2-thiophen-2-yl-ethyl)-3-phenyl-1H-quinolin-4-one] | 70% | 97.7% | 14.0% | 89.9% | 8.4% | higher affinity than prior art compound zolpidem | – | – |
| CCCN(CCC)C(=O)Cn1cc(-c2ccccc2)c(=O)c2ccc(C)cc21 [Example 14, 2-(7-Methyl-4-oxo-3-phenyl-4H-quinolin-1-yl)-N,N-dipropyl-acetamide] | 96.2% | 98.4% | 36.7% | 77.3% | 40.6% | – | higher affinity | – |
| Cc1cccc2c1c(=O)cc(-c1ccccc1)n2CC(=O)N1CCCC1 [Example 11, 5-Methyl-1-(2-oxo-2-pyrrolidin-1-yl-ethyl)-2-phenyl-1H-quinolin-4-one] | – | 99.9% | 52.6% | – | – | – | higher affinity | – |
| CCCN(CC1CC1)C(=O)Cn1cc(-c2ccccc2)c(=O)c2ccc(C)cc21 [Example 39, N-Cyclopropylmethyl-2-(7-methyl-4-oxo-3-phenyl-4H-quinolin-1-yl)-N-propyl-acetamide] | 92.5% | 98.8% | 56.3% | 93.4% | 28.5% | – | higher affinity | – |
| Cc1ccc2c(=O)c(-c3ccccc3)cn(CC(=O)N3CC(C)OC(C)C3)c2c1 (stereo not drawn) [Example 32, 1-[2-(2,6-Dimethyl-morpholin-4-yl)-2-oxo-ethyl]-7-methyl-3-phenyl-1H-quinolin-4-one] | 90% | 86.2% | 18.4% | 55.4% | 0.0% | – | – | higher α1-/α2-selectivity than the most selective therapeutically used compound zolpidem |
| COc1ccc(NC(=O)Cn2cc(-c3ccc(OC)cc3)c(=O)c3ccc(C)cc32)cc1 [Example 80, N-(4-Methoxy-phenyl)-2-[3-(4-methoxy-phenyl)-7-methyl-4-oxo-4H-quinolin-1-yl]acetamide] | 71.9% | 78.5% | 28.5% | 65.1% | 15.7% | – | – | – |
| Cc1ccc(-c2nc3ccc(C)cn3c2CC(=O)N(C)C)cc1 [zolpidem, reference compound] | 91.7% | 99.8% | 51.9% | 74.1% | 19.9% | – | – | – |
| CCN(CC)C(=O)Cn1cc(-c2ccccc2)c(=O)c2ccc(C)cc21 [Example 17, N,N-Diethyl-2-(7-methyl-4-oxo-3-phenyl-4H-quinolin-1-yl)-acetamide] | 81.5% | 91.4% | 0.7% | 70.1% | 0.0% | – | – | – |
| Cc1ccc2c(=O)c(-c3ccccc3)cn(CC(=O)N3C(C)C=CC3C)c2c1 (stereo not drawn) [Example 42, 1-[2-(2,5-Dimethyl-2,5-dihydro-pyrrol-1-yl)-2-oxo-ethyl]-7-methyl-3-phenyl-1H-quinolin-4-one] | 92.2% | 97.0% | 25.6% | 74.1% | 0.0% | – | – | – |
| CCCN(CCC)C(=O)Cn1cc(-c2ccccc2)c(=O)c2ccccc21 [Example 47, 2-(4-Oxo-3-phenyl-4H-quinolin-1-yl)-N,N-dipropyl-acetamide] | 74.7% | 88.1% | 2.3% | 68.9% | 0.0% | – | – | – |
| Cc1cccc2c1c(=O)cc(-c1ccccc1)n2CC(=O)N1CCOCC1 [Example 1, 5-Methyl-1-(2-morpholin-4-yl-2-oxo-ethyl)-2-phenyl-1H-quinolin-4-one] | – | 99.5% | 57.9% | – | – | – | higher affinity | – |
| CCCN(CCC)C(=O)Cn1cc(-c2ccc(OC)cc2)c(=O)c2ccc(C)cc21 [Example 36, 2-[3-(4-Methoxy-phenyl)-7-methyl-4-oxo-4H-quinolin-1-yl]-N,N-dipropyl-acetamide] | 92.1% | 95.9% | 20.3% | – | – | – | – | – |
| Cc1ccc2c(=O)c(-c3ccccc3)cn(CC(=O)c3oc(C)nc3C)c2c1 [Example 33, 1-[2-(2,4-Dimethyl-oxazol-5-yl)-2-oxo-ethyl]-7-methyl-3-phenyl-1H-quinolin-4-one] | 91.7% | 97.0% | 33.9% | – | – | – | – | – |
| CCCN(CCC)C(=O)Cn1cc(-c2ccccc2)c(=O)c2ccc(Br)cc21 [Example 44, 2-(7-Bromo-4-oxo-3-phenyl-4H-quinolin-1-yl)-N,N-dipropyl-acetamide] | 95.2% | 99.8% | 61.9% | – | – | – | higher affinity | – |
| C=CCN(CC=C)C(=O)Cn1cc(-c2ccccc2)c(=O)c2ccc(Br)cc21 [Example 129, N,N-Diallyl-2-(7-bromo-4-oxo-3-phenyl-4H-quinolin-1-yl)-acetamide] | 93.5% | 99.7% | 85.2% | – | – | – | higher affinity | – |
